The results in this text go back to ChEMBL document CHEMBL5579846, “Synthesis of thiazolidine-2,4-dione tethered 1,2,3-triazoles as α-amylase inhibitors: In vitro approach coupled with QSAR, molecular docking, molecular dynamics and ADMET studies” (Eur J Med Chem, 2024).

The target in the experiment is T1, Alpha amylase (Homo sapiens, UniProt P0DUB6).
T1 sequence (P0DUB6 whole entry): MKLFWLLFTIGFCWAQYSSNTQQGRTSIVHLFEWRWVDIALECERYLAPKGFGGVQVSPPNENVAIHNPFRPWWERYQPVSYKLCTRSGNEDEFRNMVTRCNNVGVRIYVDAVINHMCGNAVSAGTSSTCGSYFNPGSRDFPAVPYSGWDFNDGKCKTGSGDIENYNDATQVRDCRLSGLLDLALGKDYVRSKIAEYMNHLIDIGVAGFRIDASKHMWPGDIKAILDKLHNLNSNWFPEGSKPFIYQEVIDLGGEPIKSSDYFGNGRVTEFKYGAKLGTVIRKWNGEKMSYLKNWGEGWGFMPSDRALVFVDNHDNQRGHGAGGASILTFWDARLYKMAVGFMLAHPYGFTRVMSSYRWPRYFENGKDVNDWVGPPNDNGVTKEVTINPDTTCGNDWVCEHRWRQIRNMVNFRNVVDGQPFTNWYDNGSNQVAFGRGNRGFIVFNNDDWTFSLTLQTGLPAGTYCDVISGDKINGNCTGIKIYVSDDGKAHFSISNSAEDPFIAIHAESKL
As to the kind of experiment: Inhibition of alpha-amylase (unknown origin) using 1% starch as substrate preincubated for 30 mins followed by substrate addition and measured after 30 mins by colorimetric analysis. It counts as protein assay.

As for `CN(C)/C=C1\SC(=O)N(Cc2cn(Cc3ccccc3)nn2)C1=O`, the IC50 was 80 µM and the pIC50 stood at 7.095.

`Cc1cccc(-n2cc(CN3C(=O)S/C(=C\N(C)C)C3=O)nn2)c1` registered an IC50 of 61 µM and a pIC50 of 7.215.

In the case of `CN(C)/C=C1\SC(=O)N(Cc2cn(-c3ccnc4cc(Cl)ccc34)nn2)C1=O`, the IC50 is 40 µM and the pIC50 is 7.399.

In the case of `CCCCn1cc(CN2C(=O)S/C(=C\N(C)C)C2=O)nn1`, the half-inhibitory concentration (IC50) was found to be 58 µM and the pIC50 came out at 7.24.

On to `CN(C)/C=C1\SC(=O)N(Cc2cn(-c3ccc([N+](=O)[O-])cc3)nn2)C1=O`, for which the IC50 was found to be 59 µM and the negative-log IC50 (pIC50) was 7.227.

The compound `COc1ccc(-n2cc(CN3C(=O)S/C(=C\N(C)C)C3=O)nn2)cc1` showed an IC50 of 53 µM and a pIC50 of 7.276.

As for `COc1cccc(-n2cc(CN3C(=O)S/C(=C\N(C)C)C3=O)nn2)c1`, the IC50 stood at 69 µM and the pIC50 was determined as 7.164.

The compound `CN(C)/C=C1\SC(=O)N(Cc2cn(-c3ccc(C(F)(F)F)cc3)nn2)C1=O` displayed an IC50 of 84 µM and a pIC50 of 7.077.

With `CN(C)/C=C1\SC(=O)N(Cc2cn(CC(=O)c3ccc(Br)cc3)nn2)C1=O`, the 50% inhibitory concentration (IC50) was 78 µM and the pIC50 was determined as 7.108.

Regarding `C#CCN1C(=O)S/C(=C\N(C)C)C1=O`, the 50% inhibitory concentration (IC50) amounted to 139 µM and the pIC50 came to 6.859.

Consider `CCc1ccccc1-n1cc(CN2C(=O)S/C(=C\N(C)C)C2=O)nn1`, for which the IC50 was determined as 49 µM and the negative logarithm of the IC50 (pIC50) is 7.307.

In the case of `CN(C)/C=C1\SC(=O)N(Cc2cn(-c3ccccc3Cl)nn2)C1=O`, the half-maximal inhibitory concentration (IC50) was found to be 91 µM and the negative logarithm of the IC50 (pIC50) is on record as 7.039.

In the case of `CN(C)/C=C1\SC(=O)N(Cc2cn(Cc3ccc(Cl)cc3Cl)nn2)C1=O`, the half-maximal inhibitory concentration (IC50) worked out at 45 µM and the pIC50 was 7.349.

For the compound `CN(C)/C=C1\SC(=O)N(Cc2cn(-c3cccc(C(F)(F)F)c3)nn2)C1=O`, the IC50 amounted to 55 µM and the pIC50 stood at 7.258.

`CN(C)/C=C1\SC(=O)N(Cc2cn(-c3ccc(F)cc3)nn2)C1=O` came in with an IC50 of 93 µM and a pIC50 of 7.031.

In the case of `CN(C)/C=C1\SC(=O)N(Cc2cn(-c3ccccc3)nn2)C1=O`, the half-inhibitory concentration (IC50) worked out at 99 µM and the pIC50 turned out to be 7.003.

`CN(C)/C=C1\SC(=O)N(Cc2cn(-c3cccc(Cl)c3Cl)nn2)C1=O` returned an IC50 of 60 µM and a pIC50 of 7.222.

For the compound `CN(C)/C=C1\SC(=O)N(Cc2cn(-c3cccc(Cl)c3)nn2)C1=O`, the IC50 is 66 µM and the negative logarithm of the IC50 (pIC50) was 7.182.

In turn, `Cc1cc(C)cc(-n2cc(CN3C(=O)S/C(=C\N(C)C)C3=O)nn2)c1` came in with an IC50 of 66 µM and a pIC50 of 7.182.

The compound `Cc1ccc(C)c(-n2cc(CN3C(=O)S/C(=C\N(C)C)C3=O)nn2)c1` came in with an IC50 of 93 µM and a pIC50 of 7.032.

For the compound `Cc1ccc(-n2cc(CN3C(=O)S/C(=C\N(C)C)C3=O)nn2)c(C)c1`, the IC50 was 48 µM and the pIC50 was 7.318.

For the compound `CN(C)/C=C1\SC(=O)N(Cc2cn(-c3ccccc3C(F)(F)F)nn2)C1=O`, the IC50 was found to be 48 µM and the pIC50 is 7.319.

With `CC(C)c1ccc(-n2cc(CN3C(=O)S/C(=C\N(C)C)C3=O)nn2)cc1`, the IC50 came to 54 µM and the pIC50 worked out at 7.268.

In turn, `CN(C)/C=C1\SC(=O)N(Cc2cn(-c3ccc(Cl)cc3)nn2)C1=O` showed an IC50 of 98 µM and a negative logarithm of the IC50 (pIC50) of 7.01.

`CCc1ccc(-n2cc(CN3C(=O)S/C(=C\N(C)C)C3=O)nn2)cc1` registered an IC50 of 68 µM and a pIC50 of 7.169.

`COc1ccccc1-n1cc(CN2C(=O)S/C(=C\N(C)C)C2=O)nn1` showed an IC50 of 65 µM and a negative-log IC50 (pIC50) of 7.185.

One may read the IC50 as the concentration that gives 50% inhibition. A higher IC50 goes with weaker potency. The pIC50 is the negative decadic logarithm of the IC50, by convention in mol/L. A low value points to a high IC50.
